# Measurements taken from patent US12263176B2, “Pharmaceutical liquid compositions of meloxicam” (SLAYBACK PHARMA LLC, priority 2020, dated 2025).
# How the values were obtained:
# [1] = cited from earlier work
# [2] = following oral administration; cited from earlier work
# [3] = tested on: acute post-operative pain (Brennan) model in Sprague Dawley rats; test: Acute post-operative pain (Brennan) model, paw withdrawal latency / mechanical hyperalgesia; format: in vivo; details: 3 mg/kg IV
# Experimental: Animal Study: Evaluation of Efficacy of Meloxicam Compositions in Acute Post-operative Pain (Brennan) Model in Sprague Dawley Rats.
# The analgesic efficacy of Composition K was studied in comparison with Anjeso® and ketorolac tromethamine drug products in a rat acute post-operative pain model at a dose of 3 mg/kg administered by intravenous route.
# Meloxicam compositions (Anjeso® & Composition K) & ketorolac drug products were tested in an acute post-operative (Brennan) pain model in rats after intravenous administration. Average paw withdrawal latency & mechanical hyperalgesia (pain assessment) parameters were assessed in rats after intravenous administration of vehicle (0.9% saline), ketorolac tromethamine (3 mg/kg), Anjeso® (3 mg/kg), Composition K (3 mg/kg). Evaluations began 30 minutes following surgery, and were continued for 240 minutes.
# Mean paw withdrawal latency was between 8.6 to 8.9 across all the treatment groups. […] Average paw withdrawal latency in normal animals is 9.7 seconds whereas as it was 3.5 seconds in operated animals.
Structure (SMILES),solubility in methanol ([1]; methanol),solubility in water ([1]; water),time of maximum observed plasma concentration (Tmax) [2] [h],increased average paw withdrawal latency compared with vehicle (0.9% saline) [3] [%],"effect on development of mechanical allodynia ([3]; from 45 minutes till 240 minutes of recording, statistically significant at 45, 90 and 120 minutes)"
"Cc1cnc(NC(=O)C2=C(O)c3ccccc3S(=O)(=O)N2C)s1 [Meloxicam, 4-hydroxy-2-methyl-N-(5-methyl-2-thiazolyl)-2H-1,2-benzothiazine-3-carbox-amide-1,1-dioxide]",very slightly soluble,practically insoluble,5 to 6,–,–
O=C(c1ccccc1)c1ccc2n1CCC2C(=O)O (centres unmarked) [ketorolac tromethamine],–,–,–,68,significantly prevented the development of mechanical allodynia
